Target: T1, F508del (Homo sapiens, UniProt P13569, DEL508-508)
T1 construct: expressed in transfected cells
Assay: Protocol 1: membrane potential optical assay (FLIPR III, voltage sensing dye), identification of potentiator compounds
Type: cell-based
Details: Table 3, compounds of Table 1
Procedure, shortened: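 Membrane potential in forskolin-activated, temperature-rescued F508del NIH 3T3 cells is followed with a voltage-sensing dye on FLIPR III. A chloride ion gradient created at the single addition step provides the driving force, after prior compound treatment.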

T1 sequence (P13569 with tags, fused parts or gaps DEL508-508): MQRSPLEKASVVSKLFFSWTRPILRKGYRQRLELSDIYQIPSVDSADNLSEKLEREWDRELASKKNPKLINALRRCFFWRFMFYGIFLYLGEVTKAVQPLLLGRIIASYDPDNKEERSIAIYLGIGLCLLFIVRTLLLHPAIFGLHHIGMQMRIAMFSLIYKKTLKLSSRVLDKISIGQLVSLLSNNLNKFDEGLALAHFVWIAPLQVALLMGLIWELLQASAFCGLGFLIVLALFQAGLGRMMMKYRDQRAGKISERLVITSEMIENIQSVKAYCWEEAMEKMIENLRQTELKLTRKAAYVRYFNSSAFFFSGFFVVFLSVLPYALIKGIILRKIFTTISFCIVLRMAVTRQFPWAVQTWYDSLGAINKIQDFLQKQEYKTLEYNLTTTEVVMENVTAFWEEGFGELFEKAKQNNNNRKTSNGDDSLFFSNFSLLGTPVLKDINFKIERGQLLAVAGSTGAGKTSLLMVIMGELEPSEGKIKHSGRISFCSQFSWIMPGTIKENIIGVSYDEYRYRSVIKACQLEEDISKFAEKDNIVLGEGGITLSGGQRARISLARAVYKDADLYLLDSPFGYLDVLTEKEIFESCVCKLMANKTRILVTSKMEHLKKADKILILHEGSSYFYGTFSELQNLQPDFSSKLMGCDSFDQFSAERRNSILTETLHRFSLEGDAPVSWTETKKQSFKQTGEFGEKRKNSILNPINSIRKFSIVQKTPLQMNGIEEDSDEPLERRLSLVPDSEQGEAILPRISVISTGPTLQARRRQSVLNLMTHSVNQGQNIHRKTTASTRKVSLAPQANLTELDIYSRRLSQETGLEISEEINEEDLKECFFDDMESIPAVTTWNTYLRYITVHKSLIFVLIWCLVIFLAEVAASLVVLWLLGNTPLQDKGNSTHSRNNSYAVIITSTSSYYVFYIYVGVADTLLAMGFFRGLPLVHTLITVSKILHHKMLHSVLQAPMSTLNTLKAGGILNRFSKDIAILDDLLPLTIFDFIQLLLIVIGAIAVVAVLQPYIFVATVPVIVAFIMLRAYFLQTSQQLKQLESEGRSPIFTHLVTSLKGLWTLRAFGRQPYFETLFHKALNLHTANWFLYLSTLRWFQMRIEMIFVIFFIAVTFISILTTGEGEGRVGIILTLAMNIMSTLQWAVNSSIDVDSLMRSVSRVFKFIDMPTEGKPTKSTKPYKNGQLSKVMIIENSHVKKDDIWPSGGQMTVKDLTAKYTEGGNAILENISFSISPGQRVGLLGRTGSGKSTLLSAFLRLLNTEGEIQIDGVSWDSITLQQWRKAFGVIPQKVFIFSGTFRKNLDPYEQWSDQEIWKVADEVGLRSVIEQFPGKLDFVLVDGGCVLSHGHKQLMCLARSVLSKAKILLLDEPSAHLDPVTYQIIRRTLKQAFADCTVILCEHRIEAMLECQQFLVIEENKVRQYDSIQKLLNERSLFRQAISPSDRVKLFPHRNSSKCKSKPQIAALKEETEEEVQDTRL

SMILES	EC30
CC(C)COc1cc(F)cc(-c2ccc(C(=O)NS(=O)(=O)c3ccn[nH]3)c(N3CCCC(C)(C)C3)n2)c1 [Compound 1005, 2-(3,3-dimethyl-1-piperidyl)-6-(3-fluoro-5-isobutoxy-phenyl)-N-(1H-pyrazol-5-ylsulfonyl)pyridine-3-carboxamide]	+++ (“+++” means <3 uM)
COC1CCCCC1Oc1nc(-c2cc(F)cc(OCC(C)C)c2)ccc1C(=O)NS(=O)(=O)c1cccc(N)n1 (centres unmarked) [Compound 1622, N-[(6-amino-2-pyridyl)sulfonyl]-6-(3-fluoro-5-isobutoxy-phenyl)-2-(2-methoxycyclohexoxy)pyridine-3-carboxamide]	+++ (“+++” means <3 uM)
CC(C)COc1cc(F)cc(-c2ccc(C(=O)NS(=O)(=O)c3cccc(N)n3)c(OCCC3CCCO3)n2)c1 (centres unmarked) [Compound 1604, N-[(6-amino-2-pyridyl)sulfonyl]-6-(3-fluoro-5-isobutoxy-phenyl)-2-(2-tetrahydrofuran-2-ylethoxy)pyridine-3-carboxamide]	+++ (“+++” means <3 uM)
CC1CC(C)CN(c2cccc(S(=O)(=O)NC(=O)c3cccnc3N3CC(C)CC3(C)C)n2)C1 (centres unmarked) [Compound 1749, N—[[6-(3,5-dimethyl-1-piperidyl)-2-pyridyl]sulfonyl]-2-(2,2,4-trimethylpyrrolidin-1-yl)pyridine-3-carboxamide]	+++ (“+++” means <3 uM)
C=C1CCN(c2nc(-c3cc(F)cc(OCC(C)C)c3)ccc2C(=O)NS(=O)(=O)c2cccc(N)n2)CC1 [Compound 1162, N-[(6-amino-2-pyridyl)sulfonyl]-6-(3-fluoro-5-isobutoxy-phenyl)-2-(4-methylene-1-piperidyl)pyridine-3-carboxamide]	+++ (“+++” means <3 uM)
CC[C@@H]1CN(c2nc(-c3cc(F)cc(OCC(C)C)c3)ccc2C(=O)NS(=O)(=O)c2cccc(N)n2)C(C)(C)C1 [Compound 1612, N-[(6-amino-2-pyridyl)sulfonyl]-2-[(4S)-4-ethyl-2,2-dimethyl-pyrrolidin-1-yl]-6-(3-fluoro-5-isobutoxy-phenyl)pyridine-3-carboxamide]	+++ (“+++” means <3 uM)
CCOc1ccccc1-c1ccc(C(=O)NS(=O)(=O)c2ccc[nH]c2=O)c(N2C[C@@H](C)CC2(C)C)n1 [Compound 1848, 6-(2-ethoxyphenyl)-N-[(2-oxo-1H-pyridin-3-yl)sulfonyl]-2-[(4S)-2,2,4-trimethylpyrrolidin-1-yl]pyridine-3-carboxamide]	+++ (“+++” means <3 uM)
Cc1ccc(C)c(-c2ccc(C(=O)NS(=O)(=O)N3CC[C@H](N)C3)c(N3C[C@@H](C)CC3(C)C)n2)c1 [Compound 1736, N-[(3S)-3-aminopyrrolidin-1-yl]sulfonyl-6-(2,5-dimethylphenyl)-2-[(4S)-2,2,4-trimethylpyrrolidin-1-yl]pyridine-3-carboxamide]	++ (“++” means between 3 uM and 10 uM)
CC(C)COc1cc(F)cc(-c2ccc(C(=O)NS(=O)(=O)c3cccc(N)n3)c(OC(C)Cc3ccccc3)n2)c1 (centres unmarked) [Compound 967, N-[(6-amino-2-pyridyl)sulfonyl]-6-(3-fluoro-5-isobutoxy-phenyl)-2-(1-methyl-2-phenyl-ethoxy)pyridine-3-carboxamide]	+++ (“+++” means <3 uM)
CC(C)COc1cc(-c2ccc(C(=O)NS(=O)(=O)c3ccn[nH]3)c(N3[C@H](C)CC[C@@H]3C)n2)ccc1Cl [Compound 1234, 6-(4-chloro-3-isobutoxy-phenyl)-2-[(2S,5R)-2,5-dimethylpyrrolidin-1-yl]-N-(1H-pyrazol-5-ylsulfonyl)pyridine-3-carboxamide]	+++ (“+++” means <3 uM)
CC1CN(c2nc(C(C)(C)C)c(C3=CCCCO3)cc2C(=O)NS(=O)(=O)c2cccc(N)n2)C(C)(C)C1 (centres unmarked) [Compound 1485, N-[(6-amino-2-pyridyl)sulfonyl]-6-tert-butyl-5-(3,4-dihydro-2H-pyran-6-yl)-2-(2,2,4-trimethylpyrrolidin-1-yl)pyridine-3-carboxamide]	+++ (“+++” means <3 uM)
CC1CN(c2ncccc2C(=O)NS(=O)(=O)c2cccc(OC(C)C3CCCCC3)n2)C(C)(C)C1 (centres unmarked) [Compound 1919, N—[[6-(1-cyclohexylethoxy)-2-pyridyl]sulfonyl]-2-(2,2,4-trimethylpyrrolidin-1-yl)pyridine-3-carboxamide]	+++ (“+++” means <3 uM)
Cc1cc(C)c2c(c1)CCN2c1nc(-c2cc(F)cc(OCC(C)C)c2)ccc1C(=O)NS(=O)(=O)c1cccc(N)n1 [Compound 1572, N-[(6-amino-2-pyridyl)sulfonyl]-2-(5,7-dimethylindolin-1-yl)-6-(3-fluoro-5-isobutoxy-phenyl)pyridine-3-carboxamide]	+++ (“+++” means <3 uM)
CC1CN(c2ncc(/C=C/C3CC3)cc2C(=O)NS(=O)(=O)c2cccc(N)n2)C(C)(C)C1 (centres unmarked) [Compound 1571, N-[(6-amino-2-pyridyl)sulfonyl]-5-[(E)-2-cyclopropylvinyl]-2-(2,2,4-trimethylpyrrolidin-1-yl)pyridine-3-carboxamide]	+++ (“+++” means <3 uM)

Further lines, results first:

EC30	SMILES
+++ (“+++” means <3 uM)	COc1cccc(S(=O)(=O)NC(=O)C2Cc3ccccc3CCN2Cc2c(C)cc(C)cc2C)n1 (centres unmarked) [Compound 948, N-[(6-methoxy-2-pyridyl)sulfonyl]-3-[(2,4,6-trimethylphenyl)methyl]-1,2,4,5-tetrahydro-3-benzazepine-4-carboxamide]
++ (“++” means between 3 uM and 10 uM)	C=C(C)c1ccc(C(=O)NS(=O)(=O)c2cccc(N)n2)c(Oc2c(C)cc(C)cc2C)n1 [Compound 1211, N-[(6-amino-2-pyridyl)sulfonyl]-6-isopropenyl-2-(2,4,6-trimethylphenoxy)pyridine-3-carboxamide]
+++ (“+++” means <3 uM)	C[C@@H]1CN(c2nc(-c3ccccc3F)ccc2C(=O)NS(=O)(=O)c2cccnc2N)C(C)(C)C1 [Compound 1790, N-[(2-amino-3-pyridyl)sulfonyl]-6-(2-fluorophenyl)-2-[(4S)-2,2,4-trimethylpyrrolidin-1-yl]pyridine-3-carboxamide]
+++ (“+++” means <3 uM)	CC(C)c1ccc(C(=O)NS(=O)(=O)c2cccc(N)n2)c(N2C[C@@H](C)CC2(C)C)n1 [Compound 1505, N-[(6-amino-2-pyridyl)sulfonyl]-6-isopropyl-2-[(4S)-2,2,4-trimethylpyrrolidin-1-yl]pyridine-3-carboxamide]
+++ (“+++” means <3 uM)	CC(C)Oc1ccc(-c2ccc(C(=O)NS(=O)(=O)c3ccc(OCc4ccccc4)c(N)n3)c(N3[C@H](C)CC[C@@H]3C)n2)cn1 [Compound 1588, N-[(6-amino-5-benzyloxy-2-pyridyl)sulfonyl]-2-[(2S,5R)-2,5-dimethylpyrrolidin-1-yl]-6-(6-isopropoxy-3-pyridyl)pyridine-3-carboxamide]
++ (“++” means between 3 uM and 10 uM)	Cc1cc(C)c(Oc2nc(C)ccc2C(=O)NS(=O)(=O)c2cccc(N)n2)c(C)c1 [Compound 1137, N-[(6-amino-2-pyridyl)sulfonyl]-6-methyl-2-(2,4,6-trimethylphenoxy)pyridine-3-carboxamide]
++ (“++” means between 3 uM and 10 uM)	CCOc1cc(-c2ccc(C(=O)NS(=O)(=O)c3cccc(N)n3)c(Oc3c(C)cc(C)cc3C)n2)ccc1OC [Compound 860, N-[(6-amino-2-pyridyl)sulfonyl]-6-(3-ethoxy-4-methoxy-phenyl)-2-(2,4,6-trimethylphenoxy)pyridine-3-carboxamide]
+++ (“+++” means <3 uM)	Cc1cc(C)c(Oc2nc(-c3ccc4ccn(C)c4c3)ccc2C(=O)NS(=O)(=O)c2cccc(N)n2)c(C)c1 [Compound 1056, N-[(6-amino-2-pyridyl)sulfonyl]-6-(1-methylindol-6-yl)-2-(2,4,6-trimethylphenoxy)pyridine-3-carboxamide]
++ (“++” means between 3 uM and 10 uM)	CCc1ccc(C(=O)NS(=O)(=O)c2cccc(N)n2)c(N2C[C@@H](C)CC2(C)C)n1 [Compound 1507, N-[(6-amino-2-pyridyl)sulfonyl]-6-ethyl-2-[(4S)-2,2,4-trimethylpyrrolidin-1-yl]pyridine-3-carboxamide]
+++ (“+++” means <3 uM)	CC1CN(c2ncccc2C(=O)NS(=O)(=O)c2cccc(Nc3cc4ccccc4cn3)n2)C(C)(C)C1 (centres unmarked) [Compound 1933, N—[[6-(3-isoquinolylamino)-2-pyridyl]sulfonyl]-2-(2,2,4-trimethylpyrrolidin-1-yl)pyridine-3-carboxamide]
+++ (“+++” means <3 uM)	CC1(C)CN(c2ncc(C(F)(F)F)cc2C(=O)NS(=O)(=O)c2cccc(N)n2)C(C)(C)C1 [Compound 1638, N-[(6-amino-2-pyridyl)sulfonyl]-2-(2,2,4,4-tetramethylpyrrolidin-1-yl)-5-(trifluoromethyl)pyridine-3-carboxamide]
+ (“+” means greater than 10 uM)	Cc1cc(C)c(Oc2nc(-c3cccc(CN)c3)ccc2C(=O)NS(=O)(=O)c2cccc(N)n2)c(C)c1 [Compound 801, 6-[3-(aminomethyl)phenyl]-N-[(6-amino-2-pyridyl)sulfonyl]-2-(2,4,6-trimethylphenoxy)pyridine-3-carboxamide]
+++ (“+++” means <3 uM)	CCOc1cccc2c1CN(Cc1c(C)cc(C)cc1C)C2(C)C(=O)NS(=O)(=O)c1cccc(F)c1OC (centres unmarked) [Compound 1403, 4-ethoxy-N-(3-fluoro-2-methoxy-phenyl)sulfonyl-1-methyl-2-[(2,4,6-trimethylphenyl)methyl]isoindoline-1-carboxamide]
++ (“++” means between 3 uM and 10 uM)	CC#Cc1ccc(C(=O)NS(=O)(=O)c2cccc(N)n2)c(Oc2c(C)cc(C)cc2C)n1 [Compound 1172, N-[(6-amino-2-pyridyl)sulfonyl]-6-prop-1-ynyl-2-(2,4,6-trimethylphenoxy)pyridine-3-carboxamide]
+++ (“+++” means <3 uM)	CC(C)COc1cc(F)cc(-c2ccc(C(=O)NS(=O)(=O)c3cccc(N)n3)c(O[C@H]3CCOC3)n2)c1 [Compound 1464]

— US10758534B2 (Vertex Pharmaceuticals Incorporated, priority 2014, dated 2020)
